This note sets out measurements from ChEMBL document CHEMBL3044942, “Unexpected plant-systemic insecticidal properties of alkylene-tethered bis-imidacloprid derivatives” (J Pestic Sci, 2010).

The structures appear in SMILES notation. The source made the active and inactive calls. No cut-off for these calls is given here.

In series [1] the test system is Spodoptera litura. As to the kind of experiment: Insecticidal activity against Spodoptera litura in compound treated chinese cabbage leaves assessed as mortality after foliar dipping at 100 mg/l at 25 degC measured after 120 hr. The series is classed as functional.
For series [2], the system named is Myzus persicae. As to the kind of experiment: Insecticidal activity against Myzus persicae (green peach aphid) in compound treated chinese cabbage leaves assessed as mortality after foliar dipping at 10 mg/l at 25 degC measured after 120 hr. The series is classed as functional.
For series [3], the system named is Myzus persicae. As to the kind of experiment: Insecticidal activity against Myzus persicae (green peach aphid) in compound treated chinese cabbage leaves assessed as mortality after foliar dipping at 100 mg/l at 25 degC measured after 120 hr. Type of series: functional.
Series [4] in a line: Octanol-water partition coefficient, log P of the compound. The series is classed as physicochemical.
The subject of series [5] is Spodoptera litura. As to the kind of experiment: Insecticidal activity against Spodoptera litura in compound treated chinese cabbage leaves assessed as mortality after foliar dipping at 10 mg/l at 25 degC measured after 120 hr. The series is classed as functional.
Series [6] deals with Nilaparvata lugens. In words: Insecticidal activity against Nilaparvata lugens (brown plant hoppers) in rice seedlings root dipped in compound assessed as mortality at 100 mg/l measured after 14 days of drench application by systemic insecticidal activity assay. The series is classed as functional, organism-based.
Series [7] relates to Nilaparvata lugens. As to the kind of experiment: Insecticidal activity against Nilaparvata lugens (brown planthoppers) in rice seedlings root dipped in compound assessed as mortality at 100 mg/l measured after 7 days of drench application by systemic insecticidal activity assay. Type of series: functional, organism-based.
The test system of series [8] is Nilaparvata lugens. In words: Insecticidal activity against Nilaparvata lugens (brown planthoppers) in rice seedlings root dipped in compound assessed as mortality at 100 mg/l measured after 3 days of drench application by systemic insecticidal activity assay. The series is classed as functional, organism-based.
Series [9] deals with Plutella xylostella. As to the kind of experiment: Insecticidal activity against Plutella xylostella (diamondback moth) in compound treated cabbage leaves assessed as mortality at 10 mg/l measured on day 3 after foliar treatment by residual insecticidal activity assay. Type of series: functional, organism-based.
Series [10] concerns Myzus persicae. In words: Insecticidal activity against Myzus persicae (green peach aphid) in compound treated chinese cabbage leaves assessed as mortality at 10 mg/l measured on day 3 after foliar treatment by residual insecticidal activity assay. Type of series: functional, organism-based.
Series [11] has as its system Nilaparvata lugens. As to the kind of experiment: Insecticidal activity against Nilaparvata lugens (brown planthopper) in rice seedlings assessed as mortality measured on day 3 after foliar treatment by residual insecticidal activity assay. Type of series: functional, organism-based.
The test system of series [12] is Plutella xylostella. In words: Insecticidal activity against Plutella xylostella (diamondback moth) assessed as mortality after soil treatment on third day of infestation. Type of series: functional, organism-based.
The test system of series [13] is Myzus persicae. As to the kind of experiment: Insecticidal activity against Myzus persicae (green peach aphid) assessed as mortality after soil treatment at 25 degC measured after 11th day of infestation. Type of series: functional, organism-based.

As usually defined, the mortality is the percentage killed. By logP is commonly meant the decadic logarithm of the partition coefficient of the neutral form, usually between octanol and water. Regarding `O=[N+]([O-])/N=C1\N(CCCN2CCN(Cc3ccc(Cl)nc3)/C2=N/[N+](=O)[O-])CCN1Cc1ccc(Cl)nc1`, the mortality at 100 µg/mL with Spodoptera litura [1] was found to be 80%; with Myzus persicae [3], 27%. Further, the mortality at 10 µg/mL in the series with Myzus persicae [2] and with Spodoptera litura [5] was 13% each time. Moreover, in series [4] (read-out: logP), the logP amounted to 4.35.
As to `O=[N+]([O-])/N=C1\N(CCCCCCCCCCCCN2CCN(Cc3ccc(Cl)nc3)/C2=N/[N+](=O)[O-])CCN1Cc1ccc(Cl)nc1`, the mortality at 100 µg/mL with Spodoptera litura [1] is 0%; with Myzus persicae [3], 50%. For the same molecule, the mortality at 10 µg/mL with Myzus persicae [2] came out at 19%; with Spodoptera litura [5] it was 0%. Besides, the logP in [4] (read-out: logP) came to 6.14.
In the case of `O=[N+]([O-])NC1=NCCN1Cc1ccc(Cl)nc1` [IMIDACLOPRID], the values for the mortality at 100 µg/mL with Spodoptera litura [1] and in the series with Myzus persicae [3] were 97% and 100%, respectively. The mortality at 10 µg/mL was found to be 100% with Myzus persicae [2] and 17% in the series on Spodoptera litura [5]. Further, the logP in series [4] is given as 1.88.
Turning to `O=[N+]([O-])/N=C1\N(CCCCCCN2CCN(Cc3ccc(Cl)nc3)/C2=N/[N+](=O)[O-])CCN1Cc1ccc(Cl)nc1`, the mortality at 100 µg/mL in the series with Spodoptera litura [1] was found to be 83%; in the series on Myzus persicae [3], 23%. Besides, the figures for the mortality at 10 µg/mL in the series with Myzus persicae [2] and in the series on Spodoptera litura [5] were 10% and 27%, respectively. For the same molecule, the logP in series [4] (read-out: logP) was 4.97. For the same molecule, the inhibition result in the series with Nilaparvata lugens [6], with Nilaparvata lugens [7] and with Nilaparvata lugens [8] was “Active” throughout. The outcome in the series on Plutella xylostella [9], with Myzus persicae [10] and in the series on Nilaparvata lugens [11] was Active.
As to `O=[N+]([O-])/N=C1\N(CCN2CCN(Cc3ccc(Cl)nc3)/C2=N/[N+](=O)[O-])CCN1Cc1ccc(Cl)nc1`, the mortality at 100 µg/mL in the series on Spodoptera litura [1] came out at 20%; in the series with Myzus persicae [3] it was 97%. Besides, the results for the mortality at 10 µg/mL in the series on Myzus persicae [2] and in the series with Spodoptera litura [5] were 23% and 0%, respectively. In addition, the logP in [4] (read-out: logP) came to 4.13.
As to `O=[N+]([O-])/N=C1\N(CCCCCN2CCN(Cc3ccc(Cl)nc3)/C2=N/[N+](=O)[O-])CCN1Cc1ccc(Cl)nc1`, the mortality at 100 µg/mL in the series with Spodoptera litura [1] was found to be 40%; in the series with Myzus persicae [3], 13%. The mortality at 10 µg/mL in the series with Myzus persicae [2] and with Spodoptera litura [5] was 0% each time. Further, the log partition coefficient (logP) in [4] (read-out: logP) was determined as 4.77.
For `O=[N+]([O-])/N=C1\N(CCCCCCCN2CCN(Cc3ccc(Cl)nc3)/C2=N/[N+](=O)[O-])CCN1Cc1ccc(Cl)nc1`, the figures for the mortality at 100 µg/mL with Spodoptera litura [1] and with Myzus persicae [3] were 85% and 97%, respectively. The results for the mortality at 10 µg/mL with Myzus persicae [2] and in the series on Spodoptera litura [5] were 93% and 23%, respectively. Also, the logP in series [4] (read-out: logP) worked out at 5.18. Further, the inhibition result in the series on Plutella xylostella [12], in the series with Myzus persicae [13], in the series on Nilaparvata lugens [6], in the series with Nilaparvata lugens [7] and in the series with Nilaparvata lugens [8] was “Active” throughout. Moreover, the outcome in the series with Plutella xylostella [9], in the series on Myzus persicae [10] and in the series with Nilaparvata lugens [11] was Active.
Regarding `O=[N+]([O-])/N=C1\N(CCCCCCCCCCN2CCN(Cc3ccc(Cl)nc3)/C2=N/[N+](=O)[O-])CCN1Cc1ccc(Cl)nc1`, the mortality at 100 µg/mL with Spodoptera litura [1] stood at 27%; with Myzus persicae [3], 43%. Further, the mortality at 10 µg/mL in the series with Myzus persicae [2] stood at 27%; with Spodoptera litura [5] it was 0%. For the same molecule, the logP in series [4] (read-out: logP) is 5.76.
As to `O=[N+]([O-])/N=C1\N(CCCCCCCCN2CCN(Cc3ccc(Cl)nc3)/C2=N/[N+](=O)[O-])CCN1Cc1ccc(Cl)nc1`, the mortality at 100 µg/mL with Spodoptera litura [1] is 80%; with Myzus persicae [3], 97%. The mortality at 10 µg/mL in the series on Myzus persicae [2] turned out to be 83%; in the series with Spodoptera litura [5], 27%. Further, the logP in [4] (read-out: logP) worked out at 5.37.
Consider `O=[N+]([O-])/N=C1/N(Cc2ccc(Cl)nc2)CCN1Cc1cccc(CN2CCN(Cc3ccc(Cl)nc3)/C2=N/[N+](=O)[O-])c1`, for which the mortality at 100 µg/mL with Spodoptera litura [1] turned out to be 47%; in the series with Myzus persicae [3] it was 57%. Moreover, the mortality at 10 µg/mL in the series with Myzus persicae [2] was 33%; with Spodoptera litura [5] it was 3%. Also, the logP in series [4] (read-out: logP) worked out at 5.69.
Taken in the same sequence, the figures for `O=[N+]([O-])/N=C1\N(CCCCCCCCCN2CCN(Cc3ccc(Cl)nc3)/C2=N/[N+](=O)[O-])CCN1Cc1ccc(Cl)nc1` were 57%, 93%, 77%, 3% and 5.57.
For `O=[N+]([O-])/N=C1\N(CCCCN2CCN(Cc3ccc(Cl)nc3)/C2=N/[N+](=O)[O-])CCN1Cc1ccc(Cl)nc1`, the mortality at 100 µg/mL in the series with Spodoptera litura [1] is 57%; with Myzus persicae [3] it was 7%. Also, the mortality at 10 µg/mL turned out to be 0% in the series on Myzus persicae [2] and 7% in the series with Spodoptera litura [5]. The logP in [4] (read-out: logP) was determined as 4.56.
On to `O=[N+]([O-])/N=C1\N(Cc2ccc(CN3CCN(Cc4ccc(Cl)nc4)/C3=N/[N+](=O)[O-])cc2)CCN1Cc1ccc(Cl)nc1`, for which the mortality at 100 µg/mL amounted to 47% in the series with Spodoptera litura [1] and 97% with Myzus persicae [3]. Besides, the mortality at 10 µg/mL amounted to 97% in the series on Myzus persicae [2] and 3% with Spodoptera litura [5]. For the same molecule, the logP in series [4] (read-out: logP) was determined as 5.69.
